In one data set the test system is LC3. Also on record: method as in PMID 25483883. Particulars: cited from earlier work.
The test system of a further data set is osteosarcoma xenograft. Further details: method as in PMID 25483883. Particulars: dosed daily at 100 mg/kg; cited from earlier work.
Another data set concerns the target T1, Cathepsin B (Homo sapiens, UniProt P07858).
T1 construct: Cathepsin B (human, recombinant, active - BioVision #7580-5); purchased BioVision #7580-5
The data set can be described thus: Cathepsin B assay. The class given is biochemical. Particulars: concentrations up to 60 µM. The procedure: The assay was performed essentially as described by Mendieta et al.[60] with Cathepsin B (human, recombinant, active - BioVision #7580-5), Substrate Z-Arg-Arg-AMC (Sigma C5429) and 1 µM Z-VAD-FMK (Adooq #A12373) as positive inhibition control.
The assay was maintained at 37 °C and monitored every 2 min for 16 min at 348 nm/440 nm (excitation/emission).

The nature of data set [1]: Pharmacokinetic assay, oral dosing. The class given is in vivo, BL/6 mice. Here is the method: Blood samples (approximately 50 µL) were collected at predetermined intervals. Blood samples were placed into tubes containing sodium heparin and centrifuged at 10000 × g for 14 min to obtain the plasma samples.
Another data set deals with GFP-LC3 mice. Kind of data set: In vivo autophagy assay in GFP-LC3 mice. Particulars: 3 doses. The procedure:
(§1) GFP–LC3 mice were kindly provided by Dr. Mizushima (Tokyo Medical and Dental University, Japan)[67]. […]. The treatment was given by oral gavage. Four hours after the last dose the mice were terminated, blood samples were collected and the livers were harvested for the analysis.
(§2) After treatment, mouse liver tissues were collected and fixed with 4% paraformaldehyde dissolved in 0.1 M Na-phosphate buffer (pH 7.4) for 4 h, incubated overnight with 15% sucrose/PBS, and 30% sucrose/PBS for 4 h. Tissues were then embedded in OCT compound (Tissue-Tek) and stored at −80 °C. Liver OCT blocks were sectioned into 6 μm slides and countered stained with DAPI-containing mounting medium. Five randomly selected fields from each sample were examined (scorer was blinded) under 40x oil lens of the confocal microscope. Z-stack images were taken from each field with fixed settings at the laser power and exposure time for all samples. Green for GFP-LC3 and blue for nucleus (DAPI). The percentage of GFP-LC3 puncta positive cells from 5 fields were calculated for each sample; and 6 samples from each treatment condition were grouped for statistical analysis. Six animals per treatment group were used based on results in previous studies validating this method as a way to quantify GFP-LC3 puncta.

Data set [2] can be described thus: In vivo autophagy assay in GFP-LC3 mice. Particulars: female, GFP-LC3, mouse, 4 h after last dose, 100 or 200 mg/kg oral, 3 doses over two days. Here is the method: as §1, §2
The test system of data set [3] is SKBR3, MCF7, JIMT1 and MDA-MB-231 cells. The data set can be described thus: Endogenous LC3B-II and p62 western blot in breast cancer cell lines. The class given is cell-based. (In general: Immunoblotting shows a protein as a band on a membrane.)
A further data set deals with SKBR3 cells. The data set can be described thus: DQ-BSA assay for lysosomal activity. Format: cell-based. Particulars: CQ 20 µM; LV-320 75 and 100 µM. Here is the method: A DQ-BSA assay was used to determine lysosomal degradative activity as described. […] All samples contained equal concentration of DMSO (0.5%) in regular growth media (Gibco DMEM + 10% FBS + 20 mM HEPES + 1X NEAA). […] Data were analyzed using FlowJo software.

For data set [4], the system named is MDA-MB-231 cells. The data set can be described thus: Autophagic flux and GABARAP western blot in MDA-MB-231 cells. Format: cell-based. The procedure: Corresponding mean LC3B-II/actin values were determined using densitometry analysis; error bars, SEM (n = 3). […] Autophagic flux assay using saturating (40 nM) concentrations of bafilomycin A1 (Baf A1) was applied for the assessment of LC3B-II accumulation. […] Corresponding mean LC3B-II/actin values were determined using densitometry analysis; n = 3; error bars, SEM; *p < 0.05. […] The control ATG4B-KO JIMT-1 cells showing the location of pro-LC3B are in lane 3. Samples were run on a 4–12% Bis-tris gradient gel. The banding pattern shown is representative of 3 independent experiments. […] Addition of bafilomycin A1 (Baf A1; 40 nM) or Wortmannin (1 µM) during the final 4 h of treatment had no effect. The GABARAP-II/actin values were determined using densitometry analysis; n = 3; error bars, SEM; *p < 0.05, Student’s t-test.

The subject of data set [5] is MDA-MB-231 cells stably expressing mRFP-EGFP-LC3B. The data set can be described thus: mRFP-EGFP-LC3B puncta assay of starvation-induced autophagic flux. Format: cell-based. Particulars: 120 µM for 48 hours; starved conditions. The source says:
Since GFP fluorescence is quenched in acid environments, but red fluorescence is preferentially retained, autolysosomes are indicated by red puncta whereas autophagosomes are indicated by yellow puncta, or the overlap of both red and green fluorescence. In starved control scramble-siRNA treated cells, abundant red puncta were detected as expected, indicating high levels of autophagic flux (Fig. 6a). […] To determine if LV-320 affects lysosomal degradation, we performed a DQ-BSA assay. DQ-Red BSA is a self-quenched fluorescent substrate that enters the cell through endocytosis and fluoresces upon lysosomal degradation.
For each experiment, media was replenished every day after initial plating and before treatment. At the end of the experiment the cells were fixed in 4% PFA for 20 minutes and then rinsed with PBS. Cells were then mounted using SlowFade Gold Antifade with DAPI (Invitrogen). […] For each treatment, the number of green, red and yellow (i.e. red/green overlap where applicable) puncta per cell were determined for at least 100 cells. […] LTR fluorescent intensity was measured by the mean gray value from the unadjusted images taken with the same microscope settings of the LTR channel and subtracting the mean background using Image J 1.45 s (https://imagej.nih.gov/ij/) with cells counted by DRAQ5 positive nuclei.

For another data set, the target named is T2, caspase-3 (Homo sapiens, UniProt P42574).
T2 construct: purchased Abcam ab102491
T2 sequence (P42574 29-175 limits assumed): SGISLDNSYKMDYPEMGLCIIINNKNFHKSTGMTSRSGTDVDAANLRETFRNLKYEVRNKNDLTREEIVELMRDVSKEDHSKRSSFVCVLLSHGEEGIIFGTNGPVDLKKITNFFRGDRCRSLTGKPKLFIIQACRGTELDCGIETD
T2 sequence (P42574 176-277 limits assumed): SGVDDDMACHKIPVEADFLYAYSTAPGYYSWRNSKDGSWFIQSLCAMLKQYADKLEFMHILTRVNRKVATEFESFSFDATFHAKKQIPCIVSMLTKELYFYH
Kind of data set: Caspase 3 assay (Abcam inhibitor kit). The class given is biochemical. The procedure:
Inhibition of caspase 3 was assayed using the Abcam Caspase 3 Inhibitor Drug Detection Kit (ab102491) according to the manufacturer’s protocol.

The test system of the next data set is JIMT-1 cells. Kind of data set: LC3B-II versus pro-LC3B western blot in JIMT-1 cells. Particulars: 75 µM; 24 h.
For data set [6], the system named is MDA-MB-231 cells. The data set can be described thus: Lysotracker Red fluorescence assay. Particulars: CQ 40 µM, LV-320 120 µM; 24 hours. Format: cell-based.
Procedure: For each experiment, media was replenished every day after initial plating and before treatment. At the end of the experiment the cells were fixed in 4% PFA for 20 minutes and then rinsed with PBS. Cells were then mounted using SlowFade Gold Antifade with DAPI (Invitrogen). For Lysotracker Red®(LTR) experiments, parental MDA-MB-231 cells were incubated with 50 µM of LTR for 5 min in the dark CO2 incubator, rinsed with PBS and fixed with 4% PFA for 20 min. Fixed cells were incubated in DRAQ5 (1:500) in PBS and 100 µg/mL RNaseA for 10 minutes at room temperature before being mounted with SlowFade Gold Antifade (Invitrogen). Leica TCS SP8 inverted confocal microscope with a Leica HC PL APO 63x/1.40 oil objective and LAS AF software (Leica) were used for imaging the cells. For each treatment, the number of green, red and yellow (i.e. red/green overlap where applicable) puncta per cell were determined for at least 100 cells. Puncta counting was performed using the OpenCV Python package; a contours discovery algorithm[66] was applied to images pre-processed by filtering colors and applying a Gaussian filter and adaptive threshold.
Another data set has as its target T3, ATG4B (Homo sapiens, UniProt Q9Y4P1).
T3 sequence (Q9Y4P1 1-393): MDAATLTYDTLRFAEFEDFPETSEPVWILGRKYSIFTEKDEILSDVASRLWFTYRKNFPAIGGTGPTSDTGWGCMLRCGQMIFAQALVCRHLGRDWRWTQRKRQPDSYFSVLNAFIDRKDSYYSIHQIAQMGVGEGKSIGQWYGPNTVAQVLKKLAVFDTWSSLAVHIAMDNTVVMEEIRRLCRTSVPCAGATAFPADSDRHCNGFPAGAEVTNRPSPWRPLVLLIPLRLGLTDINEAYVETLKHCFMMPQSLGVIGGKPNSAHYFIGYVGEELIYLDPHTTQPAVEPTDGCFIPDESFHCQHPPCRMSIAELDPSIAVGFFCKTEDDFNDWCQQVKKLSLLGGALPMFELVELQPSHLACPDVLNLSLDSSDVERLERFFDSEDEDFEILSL
Kind of data set: Fluorimetric ATG4B enzymatic assay with fluorescent peptide substrate pim-FG-PABA-AMC. Format: biochemical. Particulars: up to 175 µM. The procedure: 100 μL of immobilized TCEP in deionized water was diluted in 2.50 mL of buffer (50 mM Tris, 35 mM NaCl, pH = 8). The sample was centrifuged at 10,000 × g during 1 min. The supernatant was removed. This operation was done two more times. […] The solution was incubated on a carousel at 4 °C for 1 h. This solution was then diluted with 2.06 mL of buffer (50 mM Tris, 35 mM NaCl, 5 mM EDTA, pH 8), centrifuged at 10,000 × g during 1 min and the supernatant, containing the activated ATG4B (1 µM), was kept. A 96-well all-black plate was loaded where each well was charged with 55 µL of inhibitor at different concentrations (0 µM to 100 µM or 200 µM) in buffer/DMSO 41:3 (v/v) and 20 μL of enzyme or buffer were dispensed using a dispenser (Biotek). Plate was incubated for 30 min. A single read was done using excitation and emission wavelengths of 350/450 nm. 25 µL of peptide substrate (pim-FG-PABA-AMC)[52] (final assay concentration 100 µM) was dispensed using a dispenser (Biotek). Experiments were performed in triplicate except when it is mentioned. Fluorescent reads were performed using the Synergy 4 (Biotek) at 25 °C using excitation and emission wavelengths of 350/450 nm every 15 min for 2 h.

Read-outs that look alike come from different tables or passages of the source.

One may read the inhibition as the drop in the measured response relative to a control, in per cent. Low readings indicate little suppression, high ones strong suppression.

Procedure for JIMT-1 cells: To further confirm that the increase in LC3B-II represented a block in autophagy flux, the levels of endogenous LC3B-II were quantitated in the presence and absence of bafilomycin A1 (Baf A1).
Membranes were blocked in 2% milk and incubated in primary antibodies overnight at 4 °C. Primary antibodies were diluted in 2% milk and included: p62 (1:1000; Sigma, ref: P0067), LC3B (1:1000; Abcam, ref: ab48394), GABARAP (1:1000; Abcam, ref: ab109364), beta-actin (1:10000; Abcam, ref: ab6276), and vinculin (1:1000; Abcam, ref: ab129002). Membranes were then washed with 1X PBS-T (0.1%), incubated in HRP-conjugated secondary antibodies and detected using Bio-Rad Clarity Western ECL substrate and the electronic Bio-Rad ChemiDoc MP System. Densitometry was performed using Image Lab software (Bio-Rad), and the relative levels of LC3B-II were determined by first normalizing to the actin loading controls then to the DMSO controls.

Turning to `S=C(Nc1ccccn1)c1ccccn1` [NSC 185058, N-pyridin-2-ylpyridine-2-carbothioamide], the “activation and lipidation of LC3 in cells” value in the data set on LC3 is “inhibiting activation and lipidation of LC3 in cells”. Further, the tumor growth entry in the data set on osteosarcoma xenograft is on record as “ability to inhibit tumor growth”.

As for `O=C(O)CCSC(SCCc1ccccc1)c1ccc(/C=C/c2ccnc3cc(Cl)ccc23)cc1` (stereo not drawn) [LV-320], the “inhibition of cathepsin B” value at Cathepsin B is given as 32%. In addition, the “maximum concentration in plasma” value in data set [1] (100 mg/kg oral) is given as 210 ± 50 µM. Also, the “maximum concentration in plasma” value in data set [1] (200 mg/kg oral) was 280 ± 20 µM. Further, in data set [1] (female, BL/6, mouse, plasma, 100 and 200 mg/kg oral, read-out: time of maximum concentration), the Tmax is 1 h. Moreover, the “dose proportionality of blood levels” value in [1] (oral 30, 100 and 200 mg/kg) is reported as “dose proportional up to 100 mg/kg but somewhat less so at 200 mg/kg”. The “toxicity of treatment regimens” value with GFP-LC3 mice (100 and 200 mg/kg oral) is “did not cause significant toxicity”. Also, in the data set on GFP-LC3 mice (100 or 200 mg/kg oral), the “GFP-LC3 puncta in liver versus controls” value was “significantly greater accumulation” and the “LC3B-II protein in liver versus vehicle controls” value is “increased”. Besides, the concentration at 4 h in data set [2] (blood, read-out: terminal blood levels) is 169 ± 23 µM. In addition, in data set [2] (liver, read-out: liver levels), the concentration at 4 h is 104 ± 26 µM. Also, the p62 level result in data set [3] is recorded as “dose-dependent increase”. In data set [3] (all four cell lines), the “concentration at which LC3B-II changes first detected” value is reported as 50 to 75 µM and the “endogenous LC3B-II levels” value is recorded as “dose-dependent increase”. In addition, in the data set on SKBR3 cells, the “DQ-Red BSA fluorescence (lysosomal degradation)” value is recorded as “no significant effect”. Moreover, the GABARAP levels entry with MDA-MB-231 cells [4] (120 µM for 24 h) is given as “significant decrease”. For the same molecule, the “autophagic flux (LC3B-II with and without Baf A1)” value in the data set on MDA-MB-231 cells [4] (120 µM for 48 hours, Baf A1 40 nM) is on record as “blocks autophagic flux”. In addition, the “formation of red puncta (autolysosomes)” value in data set [5] is given as “significantly blocked”. The inhibition at 60 µM against caspase-3 came out at 6%. For the same molecule, the “LC3B-II versus pro-LC3B accumulation” value with JIMT-1 cells is “accumulation of LC3B-II but not pro-LC3B”.

In the case of `CCN(CC)CCCC(C)Nc1ccnc2cc(Cl)ccc12` (stereo not drawn) [chloroquine, reference compound], in the data set on MDA-MB-231 cells [6], the “LTR fluorescence intensity relative to vehicle” value is given as “statistically significant decrease”. Besides, the “DQ-Red BSA fluorescence (lysosomal degradation)” value with SKBR3 cells is “significantly reduced”. Further, the “inhibition of activity of purified ATG4B” value on ATG4B is reported as “did not show significant inhibition”.

The values above are taken from paper PMC6076261, “A new quinoline-based chemical probe inhibits the autophagy-related cysteine protease ATG4B” (Scientific Reports, 2018).
